Patent publication US10238688B2, “Combination therapies for bladder cancer” (GENEDIA BIOTECH CO. LTD., priority 2015, dated 2019)

Tests used:
Assay type in all cases: in vivo, BALB/C male nude mice
[1] = system: 5637 derived tumor xenografts; test: 5637 tumor xenograft growth in nude mice
Experimental: (§1) Each experiment was performed three times. All animals were adult BALB/C male nude mice of 8-12 weeks of age and experiments were performed in accordance with the National Institutes of Health Guide for the Care and Use of Laboratory Animals and approved by the animal research committee of Harbin Medical University, China.
(§2) Cells (1×10^6-7th/100 μL) embedded in BD Matrigel™ Matrix were subcutaneously injected at three sites in the back of each mouse (3-4 mice per treatment). On day 7-12th following cell injection, the animals were treated with the different drugs by an intraperitoneal injection, which was repeated every three days. Tumor volumes were monitored/calculated using the equation V=W^2L×0.5 (where W and L represent the […] tumor diameters (mm)) and then plotted. The tumor mass mice were weighed, fixed/sliced for immunohistochemistry after sacrificing the animals.
(§3) Two sets of tumor xenograft/nude mice studies were carried out. The in vivo study involves […]. Both mean±S.D of tumor volume and mass were calculated. […]
(§4) This example then compared the in vivo anticancer activity of EH/Ci/Mi regimen with its mono- and bi-drug counterparts on the 5637, UM-UC-3, or Biu87 cells derived tumor xenografts in nude mice. […] The tumor volumes were measured once every three days and were normalized by the volume on day 7. […]

[2] = system: Biu87 derived tumor xenografts; test: Biu87 tumor xenograft growth in nude mice
Experimental: as §1, §2, §3, §4

[3] = system: Ki67-positive cells in tumor xenografts; test: Ki67 immunohistochemistry of tumor xenografts; conditions: relative to PBS controls; day 28
Experimental: (§5) Immunostaining was performed on 5 μm slices of formalin fixed paraffin-embedded tumor xenografts using antibodies from Gene Tech Company (Shanghai, China) against both Ki67 and CD34. Pictures were taken by LEICA DM 4000B microscope and the relative level of each protein was calculated using LEICA software. The relative staining per antibody (in percentage) in the […] tumors was calculated and plotted.
(§6) This example then compared the in vivo anticancer activity of EH/Ci/Mi regimen with its mono- and bi-drug counterparts on the 5637, UM-UC-3, or Biu87 cells derived tumor xenografts in nude mice. Since there is no established conversion rule for the drug dose in cell culture to in nude mice, this example used 75 μg per mouse for the mono-drug treatments and 25 μg per drug per mouse for both bi-drug and tri-drug combinations, based on the maximum tolerated drug dose recommended for these drugs. To minimize the inter-mouse bias's effect on tumor growth, three different BCa cell line-derived tumor xenografts were individually established subcutaneously on the back of the twelve mice (FIG. 5A). […] The tumor volumes were measured once every three days and were normalized by the volume on day 7. […]

[4] = system: UM-UC-3 derived tumor xenografts; test: UM-UC-3 tumor xenograft growth in nude mice
Experimental: as §1, §2, §3, §4

[5] = system: CD34 positive vascular structures in tumor xenografts; test: CD34 immunohistochemistry of tumor xenografts; conditions: relative to PBS controls; day 28
Experimental: as §5, §6

`N.N.[Cl][Pt][Cl]` [Ci, (SP-4-2)-diamminedichloroplatinum(II)] showed a relative tumor weight ([1]; 5637 derived tumor, day 28, tri-drug group taken as 1) of 1.79, a relative tumor volume ([1]; 5637 xenograft, normalized by volume on day 7, i.p. at three-day interval, 75 μg per mouse mono-drug, 25 μg per drug per mouse combinations) of 6.2 and a relative tumor weight ([2]; Biu87 derived tumor, day 28, tri-drug group taken as 1) of 1.48. For the same compound, the “increase in tumor volume on day 28th (relative tumor volume)” value ([2]; Biu87 xenograft, normalized by volume on day 7, i.p. at three-day interval, 75 μg per mouse mono-drug, 25 μg per drug per mouse combinations) was 4.95, the “percentage of Ki67-positive cells in tumor xenografts” value [3] was “reduced” and the relative tumor weight ([4]; UM-UC-3 derived tumor, day 28, tri-drug group taken as 1) was 3.37. The “increase in tumor volume on day 28th (relative tumor volume)” value ([4]; UM-UC-3 xenograft, normalized by volume on day 7, i.p. at three-day interval, 75 μg per mouse mono-drug, 25 μg per drug per mouse combinations) was 10.58 and the “numbers of CD34 positive vascular structures in tumor xenografts” value [5] was “reduced”.
